Assay results: patent US20260108547A1, “LEVERAGING L-FUCOSE-MEDIATED SIGNALING TO INDUCE MONOCYTE-DERIVED DENDRITIC CELL POLARIZATION” (H. LEE MOFFITT CANCER CENTER AND RESEARCH INSTITUTE, INC., priority 2022, published 2026)

Tests used:
SW1 tumors = assay: Volumetric tumor growth, SW1 melanoma in C3H/HeN mice (incl. immunodepletion, FTY720, anti-PD1); type: in vivo, mouse; conditions: SW1 model
Description: All animals were housed at the Vincent A. Stabile Research building animal facility at H. Lee Moffitt Cancer Center & Research Institute, which is fully accredited by the Association for Assessment and Accreditation of Laboratory Animal Care International (AAALAC, #434), and are managed in accordance with the Guide for the Care and Use of Laboratory Animals (“The Guide”), the Animal Welfare Regulations Title 9 Code of Federal Regulations Subchapter A, “Animal Welfare”, Parts 1-3 (AWR), the Public Health Service Policy on Humane Care and Use of Laboratory Animals (PHS Policy), and by the USF Institutional Animal Care and Use Committee's Principles and Procedures of Animal Care and Use (IACUC Principles). The experiments and protocols detailed in this study received institutional approval by the Moffitt IACUC (RIS00001625). Four-to-six-week-old female C3H/HeN and male C57BL6 mice were purchased from Charles Rivers Laboratories for the indicated experiments. Four-to-six-week-old male NSG mice from the Lau laboratory breeding colony were used for the indicated experiments. Power calculations were used to determine mouse cohort sizes to detect significant changes in tumor sizes. In general, 10 mice per indicated cohort to accommodate for incidental loss of mice due to issues beyond our control (e.g., incidental tumor ulceration that required exclusion from the study). Mouse tumor volumes were measured using length, width and depth divided by 2. At each experimental endpoint, mice were humanely euthanized using CO2 inhalation in accordance to the American Veterinary Medical Association guidelines.
For all mouse models, 1×10^6 melanoma cells were injected subcutaneously in the right hind flanks of each mouse. […] This dosage is within ranges for dietary supplementation with L-fucose and other similar dietary sugars (e.g., D-mannose) in other rodent studies. When the tumors reached −2 cm^3, the animals were sacrificed, and the tumors either processed for flow cytometric profiling or for histological analysis as indicated.
(§1) Control vs. mFuk±L-fucose models (FIG. 1 & FIG. 8): SW1 or SM1 mouse melanoma cells were injected into syngeneic C3H/HeN (or NSG) female or C57BL/6 male mice, respectively, as follows: parental SW1 cells for FIG. 1A; parental SM1 cells for FIG. 1E; SW1 cells stably expressing either empty vector (EV) or mouse fucose kinase (mFuk) for FIG. 1L; and parental SW1 cells for FIG. 1M.
as §1, with “L-fucose±FTY720” for “mFuk±L-fucose”, “2):” for “1 & FIG. 8):”, “respectively. Cells were injected” for “respectively,”, “1M. FTY720 was administered at 20 μg every 2 days starting on Day 12, just prior to the initiation of LF, until endpoint.” for “1M.”
Immunodepletion mouse models (FIG. 1 & FIG. 8): Three days prior to tumor engraftment, PBS (control) or ˜300 μg α-CD4 (20 mg/kg, for immunodepletion, GK1.5, Bioxcell (West Lebanon, NH)) or 0-CD8 (20 mg/kg, for immunodepletion, 2.43, Bioxcell (West Lebanon, NH)) was administered by intraperitoneal injection into the indicated cohorts of mice. Injections of immunodepletion antibody or PBS were continued every 3-4 days until endpoint. Syngeneic recipient C3H/HeN female or C57BL/6 male mice were injected with SW1 or SM1 cells, respectively. […]

SW1 tumor cells = assay: Co-culture of pretreated moDCs with GFP-expressing SW1 tumor cells (GFP loss, LDH release); type: cell-based, mouse; conditions: loss of GFP fluorescence
Description: We next sought to determine if the change in phagocytosis we observe in the bead uptake assay was accompanied with increased cytotoxic tendencies in the L-fucose-treated moDCs. To this end we co-cultured pretreated moDCs with GFP-expressing SW1 tumor cells to observe (FIG. 26C) loss of GFP fluorescence correlating with SW1 and (FIG. 26D) release of LDH as markers of cell death.

HLA-DRB1 = assay: qRT-PCR and immunoblot of HLA-DRB1 mRNA and protein levels in melanoma cells; type: cell-based, human; conditions: 250 μM
Protocol: Cells were lysed on ice in RIPA lysis buffer (25 mM Tris-HCl pH 7.6, 150 mM NaCl, 5 mM EDTA, 1% NP-40 or 1% Triton X-100, 1% sodium deoxycholate, 0.1% SDS in diH2O+protease and phosphatase inhibitors (ThermoFisher Scientific (Waltham, MA)), briefly sonicated, pelleted, and the resulting lysates were normalized by protein concentration using DC assay (BioRad Laboratories, (Hercules, CA)). The indicated samples were subjected to (12%) SDS-PAGE and immunoblot analysis using the indicated antibodies. Immunoblot imaging and analysis was performed using either an Odyssey FC scanner and ImageStudio (LiCor Biosciences, Lincoln, NE) or film.
RNA from cells subjected to the indicated treatments was extracted using Gene Elute Mammalian Total RNA Extraction System (Millipore Sigma (St. Louis, MO)). RNA was reversed transcribed to cDNA using High-Capacity cDNA Reverse Transcription Kit (ThermoFisher Scientific (Waltham, MA)). qRT-PCR analysis was performed using FastStart Universal SYBR Green Master Mix (Rox) (Roche Diagnostics, (Indianapolis, IN)) using a BioRad CFX96 Real-time system (BioRad Laboratories, (Hercules, CA)). The qRT-PCR cycles used were as follows: 95° C. for 10 min, 35 cycles of 95° C. for 15 seconds, 55° C. for 60 seconds,
and 72° C. for 30 seconds. Expression of the indicated genes was normalized to histone H3A expression. […]

CD209 = assay: DC broad panel analysis and signaling array on phosphorylated proteins; type: cell-based
Description: To better understand the phenotype of DC subsets after L-fucose treatment, we preformed broad panel analysis to highlight unique subsets of DCs, including markers of activation, cross presentation and known signaling mechanisms. […] To determine if this increased expression was related to any other signaling changes we performed a signaling array on key phosphorylated proteins on activated DCs after L-fucose treatment. […] From this, we concluded that L-fucose increases expression of CD209 and modulates downstream signaling paths

C[C@H](O)[C@@H](O)[C@@H](O)[C@H](O)C=O [L-fucose]
reduction of tumor growth (SW1 tumors; CD4+T cell depletion): completely abrogated
efficacy of anti-PD1 when combined with oral L-fuc (SW1 tumors; L-fuc in combination with anti-PD1): did not enhance efficacy of anti-PD1
reduced tumor growth (SW1 tumors; control and CD8+ T cell-depleted mice): > 50%
reduced tumor growth (SW1 tumors; oral L-fuc): ~50%
phenotype of moDCs in co-culture with SW1 tumor cells (SW1 tumor cells): cytotoxic-like phenotype
HLA-DRB1 mRNA and protein levels (HLA-DRB1): remained unchanged
CD209 expression (CD209; DC subsets after L-fucose treatment): increase
AKT and PARP (signaling array on phosphorylated proteins) (CD209; activated DCs): significant decreases
